The target in one experiment is KRAS G12D (Homo sapiens (Human), UniProt P01116, G12D). Nature of the experiment: Inhibitory activity on KRAS G12D nucleotide (GDP-GTP) exchange reaction in vitro (SOS1-dependent, BODIPY FL GDP). It is filed as biochemical. As to conditions: BODIPY FL GDP-bound KRAS G12D, compound 25° C. 1 hour, then SOS1 and GMPPNP 30 minutes. The text has this: Test Example 1: Evaluation of inhibitory activity of compounds on KRAS G12D nucleotide (GDP-GTP) exchange reaction in vitro
Recombinant KRAS G12D (conjugated N-terminus His6-tag, TEV protease cleavage site and KRAS G12D residues 1-169 (SEQ ID NO: 1), prepared by the method described as below) and cleaved recombinant SOS1 (residues 564-1049(SEQ ID NO: 2), prepared by the method as below) proteins were expressed in E. coli and purified by affinity chromatography.
To prepare the recombinant KRAS G12D, the codon-optimized DNA sequence for the recombinant KRAS G12D (conjugated N-terminus His6-tag, TEV protease cleavage site and KRAS G12D residues 1-169 (SEQ ID NO: 3))was synthesized by GeneArt Technology (Life Technologies, Carlsbad, CA, US). The construct was subcloned into the expression vector pET28a and transformed into Escherichia coli BL21 (DE3) strains (Novagen, Madison, WI, US).
The transformed strain was cultivated in 2 L Luria Broth medium with 25 μg/mL kanamycin at a temperature of 37° C. to a density of 0.6 (OD600), then induced for expression with […] IPTG and further cultivated for 4 h. The cell pellet was resuspended in ice-cold lysis buffer containing 50 mM Tris-HCl (pH 7.5), 200 mM NaCl, and 100 μM TCEP (tris(2-carboxyethyl)phosphine).
After sonication, the disrupted debris was removed by centrifugation. The supernatant was applied on to Ni-NTA affinity gels, and the recombinant human KRAS (G12D) eluted fraction was collected. The buffer of the collected fraction was exchanged to the buffer containing 50 mM Tris-HCl (pH 7.5), 200 mM NaCl, 10% Glycerol, and 5 mM DTT by PD-10 column (GE-Healthcare, Chicago, IL, US).
To prepare the cleaved recombinant SOS1, the codon optimized DNA sequences for the recombinant SOS1 (residues 564-1049 with a conjugated N-terminus His6-tag and TEV protease cleavage site (SEQ ID NO: 4)) was synthesized by GeneArt Technology (Life Technologies). The construct was subcloned into the expression vector pET28a and transformed into Escherichia coli BL21 (DE3) strains (Novagen, Madison, WI, USA).
The transformed strain was cultivated in 2 L Terrific Broth medium with 25 μg/mL kanamycin at a temperature of 37° C. to a density of 0.8 (OD600), then shifted to a temperature of 16° C., induced for expression with […] IPTG, and further cultivated for 16 h. The cell pellet was resuspended in ice-cold lysis buffer containing 50 mM Tris-HCl (pH 7.5), 200 mM NaCl, and 100 μM TCEP.
After sonication, the disrupted debris was removed by centrifugation. The supernatant was applied on to Ni-NTA affinity gels, and the recombinant human SOS1 eluted fraction was collected. Then, His6-tagged TEV protease was added to the collected fraction, dialyzed with the ice-cold lysis buffer for 16 h at a temperature of 4° C., and applied on to Ni-NTA affinity gels. The flow-through fraction containing the tag-cleavaged recombinant human SOS1 was collected. The buffer of the collected fraction was exchanged to the buffer containing 50 mM Tris-HCl (pH 7.5), 200 mM NaCl, 10% Glycerol, and 5 mM DTT by PD-10 column (GE-Healthcare).
To prepare BODIPY FL (fluorescent dye) GDP-bound KRAS G12D protein, 50 μM KRAS G12D protein was incubated with 0.5 mM BODIPY FL GDP in a loading buffer (20 mM Tris-HCl (pH 7.5), 50 mM NaCl, 1 mM DTT and 2.5 mM EDTA) for 1 hour on ice. After the incubation, MgCl2 was added to a final concentration of 10 mM, followed by incubation at room temperature for 30 minutes.
The mixture was allowed to pass through a NAP-5 column to remove free nucleotides and purified BODIPY FL GDP-bound KRAS G12D protein was used for compound evaluation.
For the measurement of the inhibitory activity of compounds on GDP-GTP exchange rate of recombinant KRAS G12D, BODIPY FL GDP-bound KRAS G12D protein was incubated with various concentrations of compound in a reaction buffer (20 mM Tris-HCl (pH 7.5), 100 mM NaCl, 1 mM MgCl2, 2 mM DTT, 0.1% Tween 20) at 25° C. for 1 hour. […]

The test system of experiment [1] is KRAS-G12D mutant cell line (A-427). Put plainly: Growth inhibition activity on KRAS-G12D mutant cell line (A-427), CellTiter-Glo 3D. The experiment is classed as cell-based. As to conditions: Homo sapiens, 72 h, A-427 cells, 3-day culture with compound, read-out: A427 CTX IC50. Here is the method:
Test Example 2: A measurement test of growth inhibition activity on KRAS-G12D mutant cell line (A-427) (in vitro) A-427 cells (ATCC, Cat #: HTB-53), which are a KRAS-G12D mutant human lung cancer cell line, were suspended in a 10% fetal bovine serum-containing E-MEM medium (manufactured by Fujifilm Wako Pure Chemical Corporation). The cell suspension was seeded into each well of a 384-well U bottom microplate and cultured in an incubator containing 5% CO2 gas at 37° C. for 1 day.
The compound of the present invention was dissolved in DMSO, and the test compound was diluted with DMSO to give a concentration 500 times the final concentration. The solution of the test compound in DMSO was diluted with the medium used for suspending cells and added to each well of the cell-culture plate to give a DMSO final concentration of 0.2%, followed by culture in an incubator containing 5% CO2 gas at 37° C. for another 3 days. The cell count after a 3-day culture in the presence of the compound was measured using CellTiter-Glo 3D Reagent (manufactured by Promega Corporation).
All wells were added with CellTiter-Glo 3D Reagent and mixed for 10 minutes. 30 minutes after mixing, luminescence was measured by a plate reader. The growth inhibition rate was calculated from the following equation, and the concentration of the test compound at which 50% inhibition was achieved (IC50 (μM)) was determined.
Growth Inhibition Rate(%)=(C−T)/(C)×100
T: the emission intensity in a well into which a test compound was added.
C: the emission intensity in a well into which a test compound was not added.
A general note: Cellular ATP, detected with luciferase, serves as a proxy for viable cell number.

By IC50 is commonly meant the concentration that inhibits the measured activity by half.

Sequence of KRAS G12D (P01116 other isoform, or with tags, fused parts or gaps G12D (already in the parent)): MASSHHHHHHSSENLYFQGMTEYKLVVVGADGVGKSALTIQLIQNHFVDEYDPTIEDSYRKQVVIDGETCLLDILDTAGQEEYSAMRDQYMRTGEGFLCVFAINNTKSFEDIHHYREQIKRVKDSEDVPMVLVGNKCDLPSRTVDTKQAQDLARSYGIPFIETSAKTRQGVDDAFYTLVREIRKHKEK

With `CN1CCC[C@H]1COc1nc2c(c(N3CC4CCC(C3)N4)n1)CCN(c1cc(O)cc3cccc(Br)c13)C2` [Example 31, 4-(4-(3,8-diazabicyclo[3.2.1]octan-3-yl)-2-(((S)-1-methylpyrrolidin-2-yl)methoxy)-5,8-dihydropyrido[3,4-d]pyrimidin-7(6H)-yl)-5-bromonaphthalen-2-ol], the IC50 on KRAS G12D stood at 17.7 nM; in experiment [1], 1950 nM.
The like results for `Cc1cccc2cc(O)cc(N3CCc4c(nc(OCC5(CN6CC[C@@H](F)C6)CC5)nc4N4CC5CCC(C4)N5)C3)c12` [Example 5, 4-(4-(3,8-diazabicyclo[3.2.1]octan-3-yl)-2-((1-(((R)-3-fluoropyrrolidin-1-yl)methyl)cyclopropyl)methoxy)-5,8-dihydropyrido[3,4-d]pyrimidin-7(6H)-yl)-5-methylnaphthalen-2-ol] were, in that order, 6.2 nM and 1170 nM.
The matching figures for `CN(C)CC1(COc2nc3c(c(N4CC5CCC(C4)N5)n2)COC(c2cc(O)cc4cccc(Br)c24)C3)CC1` (centres unmarked) [Example 37, 4-(4-(3,8-diazabicyclo[3.2.1]octan-3-yl)-2-((1-((dimethylamino)methyl)cyclopropyl)methoxy)-7,8-dihydro-5H-pyrano[4,3-d]pyrimidin-7-yl)-5-bromonaphthalen-2-ol]: 9.6 nM and 2940 nM.
Take `CN1CCC[C@H]1COc1nc(N2CC3CCC(C2)N3)c2ccc(-c3cc(O)cc4ccccc34)c(F)c2n1` [Example 16, 4-(4-(3,8-diazabicyclo[3.2.1]octan-3-yl)-8-fluoro-2-(((S)-1-methylpyrrolidin-2-yl)methoxy)quinazolin-7-yl) naphthalen-2-ol]: the IC50 was found to be 10.2 nM against KRAS G12D and 2390 nM in experiment [1].
Regarding `CN(C)CC1(COc2nc(N3CC4CCC(C3)N4)c3ccc(-c4cc(O)cc5ccccc45)c(F)c3n2)CC1` [Example 15, 4-(4-(3,8-diazabicyclo[3.2.1]octan-3-yl)-2-((1-((dimethylamino)methyl)cyclopropyl)methoxy)-8-fluoroquinazolin-7-yl) naphthalen-2-ol], the figures for the IC50 (against KRAS G12D; in experiment [1]) were 4.7 nM and 1360 nM, respectively.
The matching figures for `CN(C)CC1(COc2nc3c(c(N4CC5CCC(C4)N5)n2)CCN(c2cc(O)cc4cccc(Br)c24)C3)CC1(F)F` (centres unmarked) [Example 21, 4-(4-(3,8-diazabicyclo[3.2.1]octan-3-yl)-2-((1-((dimethylamino)methyl)-2,2-difluorocyclopropyl)methoxy)-5,8-dihydropyrido[3,4-d]pyrimidin-7(6H)-yl)-5-bromonaphthalen-2-ol]: 9.7 nM and 540 nM.
The like results for `Oc1cc(N2CCc3c(nc(OCC4(CN5CCOCC5)CC4)nc3N3C[C@@H]4CC[C@H]3CN4)C2)c2c(Br)cccc2c1` [Example 28, 4-(4-((1S,4S)-2,5-diazabicyclo[2.2.2]octan-2-yl)-2-((1-(morpholinomethyl)cyclopropyl)methoxy)-5,8-dihydropyrido[3,4-d]pyrimidin-7(6H)-yl)-5-bromonaphthalen-2-ol] were, in that order, 3.6 nM and 820 nM.
`CN(C)CC1(COc2nc(N3CC4CCC(C3)N4)c3cc(Cl)c(-c4cc(O)cc5ccccc45)c(F)c3n2)CC1` [Example 14, 4-(4-(3,8-diazabicyclo[3.2.1]octan-3-yl)-6-chloro-2-((1-((dimethylamino)methyl)cyclopropyl)methoxy)-8-fluoroquinazolin-7-yl)naphthalen-2-ol]: the IC50 worked out at 8.9 nM against KRAS G12D and 1270 nM in experiment [1].
With `CN(C)CC1(COc2nc3c(c(N4CC5CCC(C4)N5)n2)CCN(c2nc(N)cc4cccc(Br)c24)C3)CC1` [Example 22, 1-(4-(3,8-diazabicyclo[3.2.1]octan-3-yl)-2-((1-((dimethylamino)methyl)cyclopropyl)methoxy)-5,8-dihydropyrido[3,4-d]pyrimidin-7 (6H)-yl) -8-bromoisoquinolin-3-amine], the IC50 is 13 nM at KRAS G12D and 4090 nM in experiment [1].
The like results for `Oc1cc(N2CCc3c(nc(OCC4(CN5CC[C@@H](F)C5)CC4)nc3N3CC4CCC(C3)N4)C2)c2c(Br)cccc2c1` [Example 2, 4-(4-(3,8-diazabicyclo[3.2.1]octan-3-yl)-2-((1-(((R)-3-fluoropyrrolidin-1-yl)methyl)cyclopropyl)methoxy)-5,8-dihydropyrido[3,4-d]pyrimidin-7(6H)-yl)-5-bromonaphthalen-2-ol] were, in that order, 1.5 nM and 540 nM.

For the origin of these results see patent US20230348495A1, “A COMPOUND HAVING INHIBITORY ACTIVITY AGAINST KRAS G12D MUTATION” (TAIHO PHARMACEUTICAL CO., LTD., priority 2019, published 2023).
